From patent US20150010928A1, “MEANS AND METHODS FOR ASSESSING AN ENDOCRINE DISEASE OR DISORDER” (priority 2012, published 2015)
Marks after values point to notes of the source that are not given here.

System: male rats
Experiment: Plasma metabolite profiling (GC-MS, LC-MS, SPE-LC-MS) in male rats dosed once daily over 28 days (OECD 407)
Format: in vivo, rat
Set-up: key to erythro-Sphingoside (d18:1) / Tricosanoic acid (C23:0) / beta-Sitosterol / Tryptophan: ratio of treated group mean to untreated control group mean
Details: for Cholesterol / Choline plasmalogen No 02 / Lignoceric acid (C24:0) / Sphingomyelin (d18:1, C16:0) / Sphingomyelin (d18:2, C16:0) / erythro-Sphingosine (d18:1) / Alanine, ratio versus control / Androstenedione, ratio versus control / Cholesterol, ratio versus control / Glycine, ratio versus control / Heptadecanoic acid (C17:0), ratio versus control / Testosterone, ratio versus control / Threonine, ratio versus control / Uric acid, ratio versus control / alpha-Tocopherol, ratio versus control / 3,4-Dihydroxyphenylacetic acid (DOPAC) / Choline plasmalogen No 03 / Coenzyme Q10 / Elaidic acid (C18:trans[9]1) / Glycerol phosphate, lipid fraction / Glycerol, polar fraction / Lysophosphatidylcholine (C17:0) / Lysophosphatidylcholine (C18:0) / Lysophosphatidylcholine (C20:4) / Lysophosphatidylethanolamine (C22:0) / Phosphatidylcholine (C18:0, C20:3) / Phosphatidylcholine No 04 / Sphingomyelin (d18:2,C18:0) / Threonic acid / Tyrosine / beta-Sitosterol / myo-Inositol, lipid fraction / Testosterone / 3-O-Methylsphingosine (d18:1) / 5-O-Methylsphingosine (d18:1) / Cysteine / Nervonic acid (C24:cis[15]1) / Oleic acid (C18:cis[9]1) / Stearic acid (C18:0) / alpha-Tocopherol / erythro-Sphingoside (d18:1) / threo-Sphingosine (d18:1) / Phosphatidylcholine (C16:0, C16:0) / Thyroxine (T4) / trans-4-Hydroxyproline: high dose; for Glucose, ratio versus control / Lysophosphatidylcholine (C20:4), ratio versus control / Threonic acid, ratio versus control / Alanine, ratio versus control / Androstenedione, ratio versus control / Cholesterol, ratio versus control / Glycine, ratio versus control / Heptadecanoic acid (C17:0), ratio versus control / Testosterone, ratio versus control / Threonine, ratio versus control / Uric acid, ratio versus control / alpha-Tocopherol, ratio versus control: male rats, plasma; for Glucose, ratio versus control / Lysophosphatidylcholine (C20:4), ratio versus control / Threonic acid, ratio versus control: low dose
Protocol: Each dose group in the studies consisted of five rats per sex. Additional groups of each 5 male and female animals served as controls. […] All animals of the animal population were kept under the same constant temperature (20-24±3° C.) and the same constant humidity (30-70%). The animals of the animal population were fed ad libitum. The food to be used was essentially free of chemical or microbial contaminants. Drinking water was also offered ad libitum. Accordingly, the water was free of chemical and microbial contaminants as laid down in the European Drinking Water Directive 98/83/EG. The illumination period was 12 hours light followed by 12 hours darkness (12 hours light, from 6:00 to 18:00, and 12 hours darkness, from 18:00 to 6:00). […] The test substances (compounds) in the Tables 1 to 17 below were dosed and administered as described in the Table 18.
In the morning of day 7, 14, and 28, blood was taken from the retroorbital venous plexus from fasted anaesthetized animals. From each animal, 1 ml of blood was collected with EDTA as anticoagulant. The samples were centrifuged for generation of plasma. All plasma samples were covered with a N2 atmosphere and then stored at −80° C. until analysis.
For mass spectrometry-based metabolite profiling analyses plasma samples were extracted and a polar and a non-polar (lipid) fraction was obtained. For GC-MS analysis, the non-polar fraction was treated with methanol under acidic conditions to yield the fatty acid methyl esters. Both fractions were further derivatised with O-methyl-hydroxyamine hydrochloride and pyridine to convert Oxogroups to O-methyloximes and subsequently with a silylating agent before analysis. In LC-MS analysis, both fractions were reconstituted in appropriate solvent mixtures. HPLC was performed by gradient elution on reversed phase separation columns. Mass spectrometric detection which allows target and high sensitivity MRM (Multiple Reaction Monitoring) profiling in parallel to a full screen analysis was applied as described in WO2003073464.
Steroids and their metabolites were measured by online SPE-LC-MS (Solid phase extraction-LC-MS).
Following comprehensive analytical validation steps, the data for each analyte were normalized against data from pool samples. These samples were run in parallel through the whole process to account for process variability. The significance of treatment group values specific for sex, treatmentduration and metabolite was determined by comparing means of the treated groups to the means of the respective untreated control groups using WELCH-test and quantified with treatment ratios versus control and p-values.
The identification of the most important biomarkers per toxicity pattern was done by a ranking of the analytes in the tables below. Therefore the metabolic changes in reference treatments of a given pattern (shown in the table) were compared with changes of the same metabolite in other unrelated treatments. […] The maximum absolute value of the respective TVALUE was taken to indicate the most important metabolite for the pattern.

## CC/C(=C(\c1ccccc1)c1ccc(OCCN(C)C)cc1)c1ccccc1 [Tamoxifen]
m7, Table 14b
  Cholesterol: 0.45
  Choline plasmalogen No 02: 0.59
  Lignoceric acid (C24:0): 0.49
  Sphingomyelin (d18:1, C16:0): 0.41
  Sphingomyelin (d18:2, C16:0): 0.49
  erythro-Sphingosine (d18:1): 0.28
m14, Table 14b
  Cholesterol: 0.51
  Choline plasmalogen No 02: 0.6
  Lignoceric acid (C24:0): 0.63
  Sphingomyelin (d18:1, C16:0): 0.63
  Sphingomyelin (d18:2, C16:0): 0.52
  erythro-Sphingosine (d18:1): 0.41
m28, Table 14b
  Cholesterol: 0.51
  Choline plasmalogen No 02: 0.68
  Lignoceric acid (C24:0): 0.63
  Sphingomyelin (d18:1, C16:0): 0.6
  Sphingomyelin (d18:2, C16:0): 0.6
  erythro-Sphingosine (d18:1): 0.42

## OC(c1ccc(Cl)cc1)(c1cncnc1)c1ccccc1Cl (stereo not drawn) [Fenarimol]
Day 7
  Glucose, ratio versus control: 0.9
  Lysophosphatidylcholine (C20:4), ratio versus control: 0.99
  Threonic acid, ratio versus control: 1.37 *
Day 14
  Glucose, ratio versus control: 0.9 *
  Lysophosphatidylcholine (C20:4), ratio versus control: 0.96 *
  Threonic acid, ratio versus control: 1.3 *
Day 28
  Glucose, ratio versus control: 0.91 *
  Lysophosphatidylcholine (C20:4), ratio versus control: 0.97 *
  Threonic acid, ratio versus control: 1.34 *

## O=P1(NCCCl)OCCCN1CCCl (stereo not drawn) [Ifosfamide]
Day 7
  Alanine, ratio versus control: 1.07
  Androstenedione, ratio versus control: 3.68
  Cholesterol, ratio versus control: 1.12
  Glycine, ratio versus control: 1.33
  Heptadecanoic acid (C17:0), ratio versus control: 0.94
  Testosterone, ratio versus control: 2.35
  Threonine, ratio versus control: 1.21
  Uric acid, ratio versus control: 0.57
  alpha-Tocopherol, ratio versus control: 0.99
Day 14
  Androstenedione, ratio versus control: 0.21 *
  Testosterone, ratio versus control: 0.21 *
Day 28
  Alanine, ratio versus control: 0.76
  Androstenedione, ratio versus control: 0.24 *
  Cholesterol, ratio versus control: 1.13
  Glycine, ratio versus control: 1.28
  Heptadecanoic acid (C17:0), ratio versus control: 1.08
  Testosterone, ratio versus control: 0.22 *
  Threonine, ratio versus control: 0.88
  Uric acid, ratio versus control: 0.65
  alpha-Tocopherol, ratio versus control: 0.95

## C#C[C@]1(O)CC[C@H]2[C@@H]3CCc4cc(O)ccc4[C@H]3CC[C@@]21C [17-alpha-Ethynylestradiol]
m7, Table 14b
  Cholesterol: 0.19
  Choline plasmalogen No 02: 0.28
  Lignoceric acid (C24:0): 0.2
  Sphingomyelin (d18:1, C16:0): 0.2
  Sphingomyelin (d18:2, C16:0): 0.19
  erythro-Sphingosine (d18:1): 0.09
m7, Table 12d
  3,4-Dihydroxyphenylacetic acid (DOPAC): 1.01
  Choline plasmalogen No 02: 0.28 *
  Choline plasmalogen No 03: 0.41 *
  Coenzyme Q10: 0.16 *
  Elaidic acid (C18:trans[9]1): 0.54 *
  Glycerol phosphate, lipid fraction: 0.22 *
  Glycerol, polar fraction: 0.68 *
  Lysophosphatidylcholine (C17:0): 0.38 *
  Lysophosphatidylcholine (C18:0): 0.77 *
  Lysophosphatidylcholine (C20:4): 0.78 *
  Lysophosphatidylethanolamine (C22:0): 0.28 *
  Phosphatidylcholine (C18:0, C20:3): 0.21 *
  Phosphatidylcholine No 04: 0.17 *
  Sphingomyelin (d18:1, C16:0): 0.32 *
  Sphingomyelin (d18:2, C16:0): 0.19 *
  Sphingomyelin (d18:2,C18:0): 0.24 *
  Threonic acid: 0.47 *
  Tyrosine: 1.09
  beta-Sitosterol: 0.3 *
  myo-Inositol, lipid fraction: 0.22 *
m14, Table 14b
  Cholesterol: 0.24
  Choline plasmalogen No 02: 0.46
  Lignoceric acid (C24:0): 0.21
  Sphingomyelin (d18:1, C16:0): 0.37
  Sphingomyelin (d18:2, C16:0): 0.24
  erythro-Sphingosine (d18:1): 0.13
m14, Table 12d
  3,4-Dihydroxyphenylacetic acid (DOPAC): 0.58 *
  Choline plasmalogen No 02: 0.46 *
  Choline plasmalogen No 03: 0.43 *
  Coenzyme Q10: 0.31 *
  Elaidic acid (C18:trans[9]1): 0.63 *
  Glycerol phosphate, lipid fraction: 0.31 *
  Glycerol, polar fraction: 0.84
  Lysophosphatidylcholine (C17:0): 0.58 *
  Lysophosphatidylcholine (C18:0): 0.84 *
  Lysophosphatidylcholine (C20:4): 0.83 *
  Lysophosphatidylethanolamine (C22:0): 0.45 *
  Phosphatidylcholine (C18:0, C20:3): 0.47 *
  Phosphatidylcholine No 04: 0.42 *
  Sphingomyelin (d18:1, C16:0): 0.4 *
  Sphingomyelin (d18:2, C16:0): 0.24 *
  Sphingomyelin (d18:2,C18:0): 0.18 *
  Threonic acid: 0.52 *
  Tyrosine: 0.96
  beta-Sitosterol: 0.38 *
  myo-Inositol, lipid fraction: 0.29 *
m28, Table 14b
  Cholesterol: 0.39
  Choline plasmalogen No 02: 0.55
  Lignoceric acid (C24:0): 0.43
  Sphingomyelin (d18:1, C16:0): 0.44
  Sphingomyelin (d18:2, C16:0): 0.34
  erythro-Sphingosine (d18:1): 0.24
m28, Table 12d
  3,4-Dihydroxyphenylacetic acid (DOPAC): 0.96
  Choline plasmalogen No 02: 0.55 *
  Choline plasmalogen No 03: 0.48 *
  Coenzyme Q10: 0.37 *
  Elaidic acid (C18:trans[9]1): 0.48 *
  Glycerol phosphate, lipid fraction: 0.29 *
  Glycerol, polar fraction: 0.63 *
  Lysophosphatidylcholine (C17:0): 0.67 *
  Lysophosphatidylcholine (C18:0): 0.89 *
  Lysophosphatidylcholine (C20:4): 0.88 *
  Lysophosphatidylethanolamine (C22:0): 0.54 *
  Phosphatidylcholine (C18:0, C20:3): 0.79 *
  Phosphatidylcholine No 04: 0.64 *
  Sphingomyelin (d18:1, C16:0): 0.65 *
  Sphingomyelin (d18:2, C16:0): 0.34 *
  Sphingomyelin (d18:2,C18:0): 0.41 *
  Threonic acid: 0.54 *
  Tyrosine: 0.83 *
  beta-Sitosterol: 0.7 *
  myo-Inositol, lipid fraction: 0.53 *

## CC1(C)CCC(=Cc2ccc(Cl)cc2)C1(O)Cn1cncn1 (stereo not drawn) [Triticonazole]
m7, male rats, Table 16
  Glycerol, polar fraction: 1.03
  Testosterone: 0.55 *
m14, male rats, Table 16
  Testosterone: 1.03
m28, male rats, Table 16
  Testosterone: 0.23 *

## Cc1cccc(C)c1N(Cn1cccn1)C(=O)CCl [Metazachlor]
m7, Table 10a
  3-O-Methylsphingosine (d18:1): 2.88 *
  5-O-Methylsphingosine (d18:1): 3.04 *
  Cysteine: 1.07^
  Lignoceric acid (C24:0): 1.6 *
  Nervonic acid (C24:cis[15]1): 3.17 *
  Oleic acid (C18:cis[9]1): 1.09^
  Stearic acid (C18:0): 1.45 *
  alpha-Tocopherol: 1.71 *
  erythro-Sphingoside (d18:1): 2.3 *
  threo-Sphingosine (d18:1): 2.18 *
m7, Table 10b
  Oleic acid (C18:cis[9]1): 1.09
  Phosphatidylcholine (C16:0, C16:0): 0.98
  Thyroxine (T4): 0.98
  trans-4-Hydroxyproline: 0.93
m14, Table 10a
  3-O-Methylsphingosine (d18:1): 4.31 *
  5-O-Methylsphingosine (d18:1): 4.66 *
  Cysteine: 0.86
  Lignoceric acid (C24:0): 2.38 *
  Nervonic acid (C24:cis[15]1): 4 *
  Oleic acid (C18:cis[9]1): 1.82 *
  Stearic acid (C18:0): 2.36 *
  alpha-Tocopherol: 2.2 *
  erythro-Sphingoside (d18:1): 3.47 *
  threo-Sphingosine (d18:1): 3.13 *
m14, Table 10b
  Oleic acid (C18:cis[9]1): 1.82^
  Phosphatidylcholine (C16:0, C16:0): 0.83 *
  Thyroxine (T4): 0.56 *
  trans-4-Hydroxyproline: 0.72 *
m28, Table 10a
  3-O-Methylsphingosine (d18:1): 4.4 *
  5-O-Methylsphingosine (d18:1): 4.51 *
  Cysteine: 1.41 *
  Lignoceric acid (C24:0): 2.11 *
  Nervonic acid (C24:cis[15]1): 3.63 *
  Oleic acid (C18:cis[9]1): 1.82 *
  Stearic acid (C18:0): 2.59 *
  alpha-Tocopherol: 2.11 *
  erythro-Sphingoside (d18:1): 3.68 *
  threo-Sphingosine (d18:1): 3.33 *
m28, Table 10b
  Oleic acid (C18:cis[9]1): 1.82^
  Phosphatidylcholine (C16:0, C16:0): 0.79 *
  Thyroxine (T4): 0.74^
  trans-4-Hydroxyproline: 0.84 *

## OCCNCCO [Diethanolamine]
m7, Table 14b
  Cholesterol: 0.75
  Choline plasmalogen No 02: 0.89
  Lignoceric acid (C24:0): 0.7
  Sphingomyelin (d18:1, C16:0): 0.68
  Sphingomyelin (d18:2, C16:0): 0.74
  erythro-Sphingosine (d18:1): 0.62
m14, Table 14b
  Cholesterol: 0.72
  Choline plasmalogen No 02: 0.68
  Lignoceric acid (C24:0): 0.68
  Sphingomyelin (d18:1, C16:0): 0.71
  Sphingomyelin (d18:2, C16:0): 0.73
  erythro-Sphingosine (d18:1): 0.58
m28, Table 14b
  Cholesterol: 0.69
  Choline plasmalogen No 02: 0.74
  Lignoceric acid (C24:0): 0.67
  Sphingomyelin (d18:1, C16:0): 0.7
  Sphingomyelin (d18:2, C16:0): 0.63
  erythro-Sphingosine (d18:1): 0.52
